Values of other authors, collected in PubChem BioAssay AID1259409 (Chemical Carcinogenesis Research Information System (CCRIS), 2018).

System: rodent chemically induced tumor inhibition, incidence and multiplicity
Assay: CCRIS tumor inhibitor studies
Details: Dose [Inhibitor]: 0, Route [Inhibitor]: ORAL, Species: RAT

CC1=C(CC(=O)O)c2cc(F)ccc2/C1=C\c1ccc(S(C)(=O)=O)cc1
tumour outcome (control, treated, inhibition, significance) (Carcinogen: 1-METHYL-1-NITROSOUREA, 684-93-5, 0.03% IN A PURIFIED HIGH-FAT (24.6%) DIET FOR 37 WK BEGINNING 1 WK POST CARCINOGEN DOSE (STUDY DURATION: 38 WK), Strain/Sex: SPRAGUE-DAWLEY/FEMALE, Target Tissue: Type of Lesion: MAMMARY GLAND: CARCINOMA, Dose [Carcinogen]: 12.5 MG/KG BW ONCE, Promoter: NONE USED): 30%, 12%, 60%, p<0.05
tumour outcome (control, treated, inhibition, significance) (Carcinogen: 1-METHYL-1-NITROSOUREA, 684-93-5, 0.03% IN DIET FOR DURATION OF STUDY BEGINNING 7 D POST CARCINOGEN DOSE (STUDY DURATION: 24 WK), Strain/Sex: SPRAGUE-DAWLEY/FEMALE, Target Tissue: Type of Lesion: MAMMARY GLAND: ADENOCARCINOMA, Dose [Carcinogen]: 50 MG/KG ONCE, Promoter: NONE USED): 93%, 93%, 0%, not significant
tumour outcome (control, treated, inhibition, significance) (Carcinogen: 1-METHYL-1-NITROSOUREA, 684-93-5, 0.06% IN A PURIFIED HIGH-FAT (24.6%) DIET FOR 37 WK BEGINNING 1 WK POST CARCINOGEN DOSE (STUDY DURATION: 38 WK), Strain/Sex: SPRAGUE-DAWLEY/FEMALE, Target Tissue: Type of Lesion: MAMMARY GLAND: CARCINOMA, Dose [Carcinogen]: 12.5 MG/KG BW ONCE, Promoter: NONE USED): 30%, 16%, 47%, p<0.05
tumour outcome (control, treated, inhibition, significance) (Carcinogen: 1-METHYL-1-NITROSOUREA, 684-93-5, 0.06% IN DIET FOR DURATION OF STUDY BEGINNING 7 D POST CARCINOGEN DOSE (STUDY DURATION: 24 WK), Strain/Sex: SPRAGUE-DAWLEY/FEMALE, Target Tissue: Type of Lesion: MAMMARY GLAND: ADENOCARCINOMA, Dose [Carcinogen]: 50 MG/KG ONCE, Promoter: NONE USED): 93%, 72%, 23%, p<0.05
tumour outcome (control, treated, inhibition, significance) (Carcinogen: AZOXYMETHANE, 25843-45-2, 500 PPM IN DIET FOR 29 WK BEGINNING 1 WK POST CARCINOGEN TREATMENT (STUDY DURATION: 32 WK), Strain/Sex: F344/MALE, Target Tissue: Type of Lesion: COLON: ADENOMA, Dose [Carcinogen]: 15 MG/KG BW 1/WK FOR 2 WK, Promoter: NONE USED): 77%, 60%, 22%, not significant
tumour outcome (control, treated, inhibition, significance) (Carcinogen: AZOXYMETHANE, 25843-45-2, 500 PPM IN DIET FOR 29 WK BEGINNING 1 WK POST CARCINOGEN TREATMENT (STUDY DURATION: 32 WK), Strain/Sex: F344/MALE, Target Tissue: Type of Lesion: COLON: CARCINOMA, Dose [Carcinogen]: 15 MG/KG BW 1/WK FOR 2 WK, Promoter: NONE USED): 53%, 63%, -19%, not significant
tumour outcome (control, treated, inhibition, significance) (Carcinogen: AZOXYMETHANE, 25843-45-2, 1000 PPM IN DIET FOR 29 WK BEGINNING 1 WK POST CARCINOGEN TREATMENT (STUDY DURATION: 32 WK), Strain/Sex: F344/MALE, Target Tissue: Type of Lesion: COLON: ADENOMA, Dose [Carcinogen]: 15 MG/KG BW 1/WK FOR 2 WK, Promoter: NONE USED): 77%, 40%, 48%, p<0.05
tumour outcome (control, treated, inhibition, significance) (Carcinogen: AZOXYMETHANE, 25843-45-2, 1000 PPM IN DIET FOR 29 WK BEGINNING 1 WK POST CARCINOGEN TREATMENT (STUDY DURATION: 32 WK), Strain/Sex: F344/MALE, Target Tissue: Type of Lesion: COLON: CARCINOMA, Dose [Carcinogen]: 15 MG/KG BW 1/WK FOR 2 WK, Promoter: NONE USED): 53%, 37%, 30%, not significant
tumour outcome (control, treated, inhibition, significance) (Carcinogen: AZOXYMETHANE, 25843-45-2, 2000 PPM IN DIET FOR 29 WK BEGINNING 1 WK POST CARCINOGEN TREATMENT (STUDY DURATION: 32 WK), Strain/Sex: F344/MALE, Target Tissue: Type of Lesion: COLON: ADENOMA, Dose [Carcinogen]: 15 MG/KG BW 1/WK FOR 2 WK, Promoter: NONE USED): 77%, 20%, 74%, p<0.05
tumour outcome (control, treated, inhibition, significance) (Carcinogen: AZOXYMETHANE, 25843-45-2, 2000 PPM IN DIET FOR 29 WK BEGINNING 1 WK POST CARCINOGEN TREATMENT (STUDY DURATION: 32 WK), Strain/Sex: F344/MALE, Target Tissue: Type of Lesion: COLON: CARCINOMA, Dose [Carcinogen]: 15 MG/KG BW 1/WK FOR 2 WK, Promoter: NONE USED): 53%, 10%, 81%, p<0.05
tumour outcome (control, treated, inhibition, significance) (Carcinogen: N-BUTYL-N-(N-HYDROXYBUTYL)NITROSAMINE [3817-11-6], 600 MG/KG IN DIET FOR 6 MONTHS BEGINNING 1 WK PRIOR TO FIRST CARCINOGEN DOSE (STUDY DURATION: 6 MONTHS), Strain/Sex: F344/FEMALE, Target Tissue: Type of Lesion: URINARY BLADDER: CARCINOMA, Dose [Carcinogen]: 150 MG IN 20% ETHANOL 2X/WK FOR 8 WK (STUDY DURATION: 6 MONTHS), Promoter: NONE): 27%, 30%, -11%, not significant
tumour outcome (control, treated, inhibition, significance) (Carcinogen: N-BUTYL-N-(N-HYDROXYBUTYL)NITROSAMINE [3817-11-6], 600 MG/KG IN DIET FOR 6 MONTHS BEGINNING 1 WK PRIOR TO FIRST CARCINOGEN DOSE (STUDY DURATION: 6 MONTHS), Strain/Sex: F344/FEMALE, Target Tissue: Type of Lesion: URINARY BLADDER: PAPILLOMA, Dose [Carcinogen]: 150 MG IN 20% ETHANOL 2X/WK FOR 8 WK (STUDY DURATION: 6 MONTHS), Promoter: NONE): 60%, 60%, 0%, not significant
tumour outcome (control, treated, inhibition, significance) (Carcinogen: N-BUTYL-N-(N-HYDROXYBUTYL)NITROSAMINE [3817-11-6], 800 MG/KG IN DIET FOR 6 MONTHS BEGINNING 1 WK PRIOR TO FIRST CARCINOGEN DOSE (STUDY DURATION: 6 MONTHS), Strain/Sex: F344/FEMALE, Target Tissue: Type of Lesion: URINARY BLADDER: CARCINOMA, Dose [Carcinogen]: 150 MG IN 20% ETHANOL 2X/WK FOR 8 WK (STUDY DURATION: 6 MONTHS), Promoter: NONE): 27%, 23%, 15%, not significant
tumour outcome (control, treated, inhibition, significance) (Carcinogen: N-BUTYL-N-(N-HYDROXYBUTYL)NITROSAMINE [3817-11-6], 800 MG/KG IN DIET FOR 6 MONTHS BEGINNING 1 WK PRIOR TO FIRST CARCINOGEN DOSE (STUDY DURATION: 6 MONTHS), Strain/Sex: F344/FEMALE, Target Tissue: Type of Lesion: URINARY BLADDER: PAPILLOMA, Dose [Carcinogen]: 150 MG IN 20% ETHANOL 2X/WK FOR 8 WK (STUDY DURATION: 6 MONTHS), Promoter: NONE): 60%, 43%, 28%, not significant
tumour outcome (control, treated, inhibition, significance) (Carcinogen: N-BUTYL-N-(N-HYDROXYBUTYL)NITROSAMINE [3817-11-6], 1000 MG/KG IN DIET FOR 6 MONTHS BEGINNING 1 WK PRIOR TO FIRST CARCINOGEN DOSE (STUDY DURATION: 6 MONTHS), Strain/Sex: F344/FEMALE, Target Tissue: Type of Lesion: URINARY BLADDER: CARCINOMA, Dose [Carcinogen]: 150 MG IN 20% ETHANOL 2X/WK FOR 8 WK (STUDY DURATION: 6 MONTHS), Promoter: NONE): 27%, 14%, 48%, not significant
tumour outcome (control, treated, inhibition, significance) (Carcinogen: N-BUTYL-N-(N-HYDROXYBUTYL)NITROSAMINE [3817-11-6], 1000 MG/KG IN DIET FOR 6 MONTHS BEGINNING 1 WK PRIOR TO FIRST CARCINOGEN DOSE (STUDY DURATION: 6 MONTHS), Strain/Sex: F344/FEMALE, Target Tissue: Type of Lesion: URINARY BLADDER: PAPILLOMA, Dose [Carcinogen]: 150 MG IN 20% ETHANOL 2X/WK FOR 8 WK (STUDY DURATION: 6 MONTHS), Promoter: NONE): 60%, 38%, 37%, not significant
tumour outcome (control, treated, inhibition, significance) (Carcinogen: N-BUTYL-N-(N-HYDROXYBUTYL)NITROSAMINE [3817-11-6], 1200 MG/KG IN DIET FOR 6 MONTHS BEGINNING 1 WK PRIOR TO FIRST CARCINOGEN DOSE (STUDY DURATION: 6 MONTHS), Strain/Sex: F344/FEMALE, Target Tissue: Type of Lesion: URINARY BLADDER: CARCINOMA, Dose [Carcinogen]: 150 MG IN 20% ETHANOL 2X/WK FOR 8 WK (STUDY DURATION: 6 MONTHS), Promoter: NONE): 27%, 7%, 74%, not significant
tumour outcome (control, treated, inhibition, significance) (Carcinogen: N-BUTYL-N-(N-HYDROXYBUTYL)NITROSAMINE [3817-11-6], 1200 MG/KG IN DIET FOR 6 MONTHS BEGINNING 1 WK PRIOR TO FIRST CARCINOGEN DOSE (STUDY DURATION: 6 MONTHS), Strain/Sex: F344/FEMALE, Target Tissue: Type of Lesion: URINARY BLADDER: PAPILLOMA, Dose [Carcinogen]: 150 MG IN 20% ETHANOL 2X/WK FOR 8 WK (STUDY DURATION: 6 MONTHS), Promoter: NONE): 60%, 27%, 55%, not significant
